Data: paper PMC5524215 (Journal of clinical pharmacology, 2016)
Where two headings read alike, the source gives them in different places. Where a SMILES comes first, the peptide text is derived from it.

Tests used:
[1] = beagle, GLP, 5 mg/kg/dose four times per day (20 mg/kg/day) for 14 days; cited from earlier work
[2] = Safety and tolerability in healthy adult subjects; details: healthy adults, single 0.01-1.0 mg/kg and repeated 1 mg/kg i.v.
[3] = Repeated dose pharmacokinetics of intravenous CN-105; assay type: in vivo, human; details: for Ratio 2/1: AUCTAU2/AUCTAU1, repeated 1 mg/kg i.v. infusions over 30 min; for Ratio 13/1: AUCTAU13/AUCTAU1, repeated 1 mg/kg i.v. infusions over 30 min; for AUCTAU1 / AUCTAU2 / AUCTAU13: repeated 1 mg/kg i.v. infusions over 30 min; for AUCTAU2: dose 2; for AUCTAU13: dose 13
[4] = Single ascending dose pharmacokinetics of intravenous CN-105 in healthy adults
[5] = murine pharmacokinetics; cited from earlier work
[6] = in vivo, iv
[7] = rodent, GLP, 5 mg/kg/dose four times per day (20 mg/kg/day) for 14 days; cited from earlier work
[8] = healthy adults, 1 mg/kg i.v. every 6 h for 72 h

In the case of `CC(=O)N[C@H](C(=O)N[C@@H](CO)C(=O)N[C@@H](CCCNC(=N)N)C(=O)N[C@@H](CCCNC(=N)N)C(=O)N[C@@H](CCCNC(=N)N)C(N)=O)C(C)C` [CN-105] (Ac-VSRRR-NH2; N-terminus and C-terminus assumed), the “tolerability of repeated intravenous administration” value [1] is given as “well-tolerated”, the “changes in serial ECG, vital signs or clinical laboratory tests” value [2] is given as “No concerning changes were observed” and the “accumulation on repeated dosing” value ([3]; 1 mg/kg i.v. every 6 h for 72 h, judged by AUCTAU ratios between time points) is given as “no significant accumulation”. For the same molecule, the “Ratio 2/1” value ([3]; geometric mean) was 1.1, the “Ratio 2/1” value ([3]; mean of subjects) was 1.1 and the “Ratio 2/1” value ([3]; median) was 1.1. The “Ratio 13/1” value ([3]; geometric mean) was 1.2, the “Ratio 13/1” value ([3]; mean of subjects) was 1.2 and the “Ratio 13/1” value ([3]; median) was 1.3. The “time at which trough concentrations reached a stable plateau” value [3, 8] was at most 20 h, the “time to steady state” value [3, 8] was at most 24 h and the half-life ([3]; human, plasma, iv, 1 mg/kg) was 3.6 h. It also gave an AUC(0-t) ([3]; human, plasma, iv, 1 mg/kg, AUCTAU1, repeated 1 mg/kg i.v. infusions over 30 min, dose 1, geometric mean) of 9540 ng·h/mL, an AUCTAU1 ([3]; dose 1, maximum among subjects) of 11431.3 and an AUCTAU1 ([3]; dose 1, median) of 9911.7. For the same molecule, the AUCTAU1 ([3]; dose 1, minimum among subjects) was 7425.1, the AUCTAU2 ([3]; geometric mean) was 10506.5 and the AUCTAU2 ([3]; maximum among subjects) was 12581.6. It also gave an AUCTAU2 ([3]; median) of 10448.8, an AUCTAU2 ([3]; minimum among subjects) of 8990.5 and an AUCTAU13 ([3]; geometric mean) of 11328.6. It also gave an AUCTAU13 ([3]; maximum among subjects) of 14203.2, an AUCTAU13 ([3]; median) of 11600.4 and an AUCTAU13 ([3]; minimum among subjects) of 9382.1. For the same molecule, the “observed half-life at higher doses” value ([4]; healthy adults, i.v., higher doses) was 3.6 h, the half-life ([4]; human, plasma, iv) was 3.5 h and the AUC(0-inf) ([4]; human, plasma, iv, 0.01 mg/kg) was 95.9 ± 20.2 ng·h/mL. For the same molecule, the Cmax ([4]; human, plasma, iv, 0.01 mg/kg) was 35.7 ± 10.9 ng/mL, the Vd ([4]; human, plasma, iv, 0.01 mg/kg) was 29.8 ± 3.2 L and the clearance ([4]; human, plasma, iv, 0.01 mg/kg) was 150 mL/min. It also gave an AUC(0-inf) ([4]; human, plasma, iv, 0.03 mg/kg) of 281 ± 39.6 ng·h/mL, a Cmax ([4]; human, plasma, iv, 0.03 mg/kg) of 108 ± 25.5 ng/mL and a Vd ([4]; human, plasma, iv, 0.03 mg/kg) of 30.4 ± 8 L. For the same molecule, the clearance ([4]; human, plasma, iv, 0.03 mg/kg) was 150 mL/min, the AUC(0-inf) ([4]; human, plasma, iv, 0.1 mg/kg) was 1130 ± 194 ng·h/mL and the Cmax ([4]; human, plasma, iv, 0.1 mg/kg) was 408 ± 129 ng/mL. It also gave a Vd ([4]; human, plasma, iv, 0.1 mg/kg) of 38.9 ± 12 L, a clearance ([4]; human, plasma, iv, 0.1 mg/kg) of 137 mL/min and an AUC(0-inf) ([4]; human, plasma, iv, 0.3 mg/kg) of 2670 ± 272 ng·h/mL. It also gave a Cmax ([4]; human, plasma, iv, 0.3 mg/kg) of 966 ± 209 ng/mL, a Vd ([4]; human, plasma, iv, 0.3 mg/kg) of 45.6 ± 11.2 L and a clearance ([4]; human, plasma, iv, 0.3 mg/kg) of 147 mL/min. The AUC(0-inf) ([4]; human, plasma, iv, 1 mg/kg) was 9550 ± 1280 ng·h/mL, the Cmax ([4]; human, plasma, iv, 1 mg/kg) was 3940 ± 507 ng/mL and the Vd ([4]; human, plasma, iv, 1 mg/kg) was 38.4 ± 8.1 L. For the same molecule, the clearance ([4]; human, plasma, iv, 1 mg/kg) was 128 mL/min, the “half-life predicted by animal modeling” value [5] was 0.5 h and the T1/2 ([6]; 0.01 mg/kg) was 2.3 ± 0.5. The T1/2 ([6]; 0.03 mg/kg) was 2.4 ± 0.5, the T1/2 ([6]; 0.1 mg/kg) was 3.3 ± 0.6 and the T1/2 ([6]; 0.3 mg/kg) was 3.6 ± .4. The T1/2 ([6]; 1 mg/kg) was 3.5 ± 0.3 and the “tolerability of repeated intravenous administration” value [7] was “well-tolerated”.
